# ChEMBL document CHEMBL1132746, “Biologically active oligodeoxyribonucleotides. Part 12: N2-methylation of 2'-deoxyguanosines enhances stability of parallel G-quadruplex and anti-HIV-1 activity” (Bioorg Med Chem Lett, 2000)
# pIC50: −log10 of the molar value.
# What was measured:
# Conditions in all cases: Homo sapiens
# MT4 [1] = test: Tested for cytopathic effect of compound for MT-4 cells infected with HIV-1 IIIb strain relative to R-95288 (1); type: functional, cell-based
# MT4 [2] = test: Concentration required to show cytotoxicity for MT-4 cells infected with HIV-1 IIIb strain; type: functional
# MT4 [3] = test: Tested for cytopathic effect of compound for MT-4 cells infected with HIV-1 IIIb strain; type: functional, cell-based
SMILES,pIC50 (MT4 [1]),CC50 (MT4 [2]) [µM],pIC50 (MT4 [3])
Cc1cn([C@H]2C[C@H](OP(=O)(O)O[C@H]3O[C@@H](n4cnc5c(O)nc(N)nc54)C[C@@H]3OP(=O)(O)OC[C@H]3O[C@@H](n4cnc5c(O)nc(N)nc54)C[C@@H]3OP(=O)(O)OC[C@H]3O[C@@H](n4cnc5c(O)nc(N)nc54)C[C@@H]3OP(=O)(O)O)[C@@H](COCc3ccc(OCc4ccccc4)c(OCc4ccccc4)c3)O2)c(=O)[nH]c1=O,4.37,> 40,
Cc1cn([C@H]2C[C@H](OP(=O)(O)O[C@H]3O[C@@H](n4cnc5c(=O)[nH]c(N)nc54)C[C@@H]3OP(=O)(O)OC[C@H]3O[C@@H](n4cnc5c(=O)[nH]c(N)nc54)C[C@@H]3OP(=O)(O)OC[C@H]3O[C@@H](n4cnc5c(=O)[nH]c(N)nc54)C[C@@H]3OP(=O)(O)OC[C@H]3O[C@@H](n4cnc5c4N=CNC5N)C[C@@H]3OP(=O)(O)OC[C@H]3O[C@@H](n4cnc5c(=O)[nH]c(N)nc54)C[C@@H]3OP(=O)(O)OCCO)[C@@H](COCc3ccc(OCc4ccccc4)c(OCc4ccccc4)c3)O2)c(=O)[nH]c1=O (some centres undefined),,> 40,6.00
